A short description of data set [1]: Hepatocyte assay for determining the metabolic stability. The data set is classed as in vitro ADME. The conditions noted are these: incubation with rat hepatocytes; read-out: Fmax (maximum possible bioavailability, well-stirred). Here is the method: (§1) The metabolic stability of test compounds towards hepatocytes is determined by incubating the compounds at low concentrations (preferably below or around 1 μM) and at low cell counts (preferably at 1*10^6 cells/ml) in order to ensure the greatest possible linear kinetic conditions in the experiment. Seven samples from the incubation solution are removed within a stipulated time frame for the LC-MS analysis in order to determine the half life (i.e. the degradation) of the particular compound. This half life is used to calculate various “Clearance” parameters (CL) and “Fmax” values (see below).
(§2) The CL and Fmax values are a measure of the phase 1 and phase 2 metabolism of the compounds in the hepatocytes. In order to keep the influence of the organic solvent on the enzymes in the incubation mixtures as low as possible, its concentration is generally limited to 1% (acetonitrile) or 0.1% (DMSO).
(§3) For all species and races, a hepatocyte cell count in the liver of 1.1*10^8 cells/g of liver is estimated.
(§4) The calculated parameters and their meaning are: • Fmax well-stirred [%] Maximum possible bioavailability following oral application
(§5) Calculation: (1−CLblood well-stirred/QH)*100 • CLblood well-stirred [L/(h*kg)] Calculated blood clearance (well stirred model) […]

Another data set relates to rat hepatocytes. The description is as above. Type of data set: in vitro ADME. The conditions noted are these: incubation with rat hepatocytes. The procedure: as §1, §2, §3, §4, §5
A short description of data set [2]: Pharmacokinetic investigations in vivo, rat. The conditions noted are these: Rat (Wistar). Here is the method: (§6) The substance to be examined is administered to rats, mice or dogs intravenously as a solution (for example in corresponding plasma with a small addition of DMSO or in a PEG/ethanol/water mixture), and peroral administration is effected as a solution (for example in Solutol/ethanol/water or PEG/ethanol/water mixtures) or as a suspension (e.g. in a water/tylose mixture), in each case via a gavage. After administration of the substance, blood is taken from the animals at fixed times. The blood is heparinized, then plasma is obtained therefrom by centrifugation. The test substance is quantified analytically in the plasma via LC-MS/MS. From the plasma concentration/time plots determined in this way, using an internal standard and with the aid of a validated computer program, the pharmacokinetic parameters, such as AUC (area under the concentration/time curve), Cmax (maximum plasma concentration), t1/2 (half life), VSS (distribution volume) and CL (clearance), and the absolute and relative bioavailability F and Frel (i.v./p.o. comparison or comparison of suspension to solution after p.o. administration), are calculated.

A short description of data set [3]: Pharmacokinetic investigations in vivo, mouse. The conditions noted are these: Mouse (C57BL/6). The procedure:
as §6

Data set [4] is described as follows: Pharmacokinetic investigations in vivo, dog. The conditions noted are these: Dog (Beagle). The procedure: as §6
Where [5] appears, read: plasma, iv, read-out: CLPlasma CLblood (converted).
[6] abbreviates: plasma, po, p.o., read-out: t1/2 p.o. (converted).

Structures are written as SMILES.

As usually defined, the bioavailability is dose-corrected exposure relative to a reference, in per cent. For `O=C(O)[C@H]1[C@H](Cn2nnc3ccccc3c2=O)CC[C@@H]1C(=O)c1ccc(OCc2ccccc2)cc1` [Example 2, (+)-(1S,2S,5R)-2-[4-(Benzyloxy)benzoyl]-5-[(4-oxo-1,2,3-benzotriazin-3(4H)-yl)methyl]cyclopentanecarboxylic acid], the bioavailability in data set [1] stood at 84.4%. Moreover, in the data set on rat hepatocytes, the “CLblood (calculated blood clearance, well-stirred)” value was 0.65 L/h/kg. The results for the F in data set [2] (bioavailability from solution), in data set [3] (bioavailability from solution) and in data set [4] (bioavailability from solution) were 100%, 84% and 100%, respectively. The values for the AUCnorm i.v. in data set [2] (i.v.), in data set [3] (i.v.) and in data set [4] (i.v.) were 93.6 kg·h/L, 44.6 kg·h/L and 10.6 kg·h/L, respectively. In data set [2] (suspension vs solution p.o.), this compound showed a Frel of 97%. The clearance in data set [2] (setting [5]) is 0.011 L/h/kg; in data set [3] (setting [5]), 0.022 L/h/kg; in data set [4] (setting [5]), 0.094 L/h/kg. The half-life in data set [2] (setting [6]) was 8.4 h; in data set [3] (setting [6]), 5 h; in data set [4] (setting [6]) it was 14.4 h.

Source of the values: US20170119776A1, “CHIRAL 2,5-DISUBSTITUTED CYCLOPENTANECARBOXYLIC ACID DERIVATIVES AND USE THEREOF” (BAYER PHARMA AKTIENGESELLSCHAFT, priority 2014, published 2017).
